Experimental data reported in patent publication US20050074867A1, “Preservation of competent cells at ambient temperatures” (priority 2001, published 2005).

Tested on: logarithmic E. coli cells
Test: Preservation survival and stability of logarithmic E. coli cells loaded in vitro before foam drying
Format: cell-based
Description: (3) Loading of fresh electrocompetent E. coli cells before preservation: When applicable, one aliquot of the cell concentrate (3.2 ml of cells in PBS buffer, approx. 2×10^10 cfu/ml) was mixed with 0.8 ml of 50% methyl-glucoside (MAG; 10% final concentration) and incubated at 37° C. for 30 minutes (in vitro loading). A second aliquot (3.2 ml of the cell concentrate) was mixed with 0.8 ml of PBS buffer and incubated on ice for 30 minutes (control, unloaded cells). Similar to loading with MAG, the cells were loaded with 2-deoxyglucose (2-DOG) as described in Example 5 infra.
(4) Preservation of electrocompetent E. coli cells: The cells (resuspended in PBS buffer or on 20% sucrose) were mixed with an equal mass of preservation solution consisting of 45% 2:1 sucrose:raffinose or 45% 4:1 sucrose:MAG on ice. Altematively, the cell pellets were resuspended directly in 22.5% sucrose:raffinose or 22.5% 4:1 sucrose:MAG. The 0.5 g aliquots were distributed in 5 ml glass serum vials or 0.2 g aliquots were distributed in 1.2 ml glass serum vials. To determine the survival in preservation solution before drying, cell-containing mixtures were diluted in PBS buffer containing 20% sucrose and appropriate dilutions were spread plated in duplicate on L-agar plates.
The samples were dried by foam formation. The mixtures were foamed at 0° C. and kept at that temperature until foam formation occurred. After foam was well formed, shelf temperature was increased to 20° C. and drying continued overnight (at least 12 hours).
(5) Assaying the preserved E. coli cells: Dried samples were rehydrated at room temperature. 1 ml of rehydration solution (20% sucrose) was added to the 5 ml vials and 0.2 ml was added to the 1.2 ml vials. For the determination of preservation survival, rehydrated cells were diluted and spread plated in duplicate on L-agar plates. Plates were incubated at 37° C. overnight and colonies were counted the following day.
Bacterial culture was grown until OD550=0.5 was reached (mid-log growth stage). The cell concentrates were prepared as described previously. Control cells, which were not loaded, were incubated on ice for 30 minutes. Cell concentrates were incubated with different amounts (0.15-1%, 5%, 10% and 15%) of glucose and glucose nonmetabolizable analogs at 37° C. for 30 minutes (loading). These mixtures were preserved as described previously.
Accumulation of MAG in the cells prior to drying enhances preservation of logarithmic E. coli cells. Two cell concentrates (harvested at mid-log growth stage) were prepared as described previously. To induce uptake of MAG, 0.5% glucose was added to the growth medium (“induced culture”). Both concentrates were incubated with 10% MAG at 37° C. for 30 minutes (loading). When loading was completed, one concentrate was diluted 100-fold in PBS buffer and incubated at 37° C. for an additional 30 minutes to induce expulsion of the pre-accumulated MAG. Both concentrates were preserved as described previously.
Mid-logarithmic culture was prepared as described previously. 0.5% glucose was added to the growth medium (“induced cells”). The culture was concentrated 10-fold and the concentrates were incubated for 30 minutes with 10% MAG at different temperatures (0, 20, 40, and 60° C.). The mixtures were preserved as described previously.
Effect of incubation time on accumulation of MAG in logarithmic E. coli cells. Cell concentrates were prepared as described previously (0.5% glucose was added to the growth medium) and incubated with 10% MAG at 37° C. for 0, 2.5, 5, 15, 30, and 60 minutes. The mixtures were preserved as described previously.
Effect of growth stage on accumulation of MAG in E. coli cells. E. coli cultures were grown in L-broth with 0.5% glucose as described previously and harvested at OD550=0.1 (early-log), 0.5 (mid-log), 1.0 (late-log) and 2.0 (stationary cells). The cells in each culture were concentrated and split in two aliquots. […]

SMILES: O=CC[C@@H](O)[C@H](O)[C@H](O)CO [Sample 2-DOG, 2-deoxyglucose]
- survived drying (mid-logarithmic cells loaded with 0.1-1% at 37° C. for 30 minutes): 9-12%
- survived drying (mid-logarithmic cells loaded with 5% at 37° C. for 30 minutes): 20%
- survived drying (mid-logarithmic cells loaded with 10% at 37° C. for 30 minutes): 16%
- survived drying (mid-logarithmic cells loaded with 15% at 37° C. for 30 minutes): 20%
